What all share (format): cell-based, mouse
In one experiment the test system is MEFs. Briefly: ECAR and OCR measurements (Seahorse XF96) in MEFs. The protocol: (§1) Myofibroblast differentiation was induced using 10 ng ml^−1 recombinant mouse Transforming growth factor-β (TGFβ) or 10 μM Angiotensin II (AngII,). In all experiments, FBS was reduced to 1% 24 hours prior to and during treatment with TGFβ or AngII.
A Seahorse Bioscience XF96 extracellular flux analyzer was employed to measure extracellular acidification rates (ECAR) and oxygen consumption rates (OCR). ECAR was measured using the Glycolytic Stress Test Kit and OCR was measured using the Miro Stress Test Kit. To evaluate ECAR, 20,000 MEFs/well were plated in XF media pH 7.4 without supplementation. […] To evaluate OCR, 20,000 MEFs/well were plated in XF media pH 7.4 supplemented with 10 mM glucose and 1 mM sodium pyruvate. […] After each experiment, protein concentration was measured and wells were normalized using the Wave software.

Another experiment concerns PDH E1α. The experiment is described as follows: Western blot of phosphorylated PDH. Particulars: MEFs, 0, 24, 48, or 72 h. Here is the method:
(§2) All protein samples were lysed by homogenization in RIPA buffer supplemented with phosphatase inhibitors and protease inhibitors. Samples were sonicated briefly and centrifuged at 5,000 g for 10 minutes. The supernatant was collected and used for further analysis. Protein amount was quantified using the Bradford Protein Assay and equal amounts of protein (10-50 μg) were run by electrophoresis on polyacrylamide Tris-glycine SDS gels. Gels were transferred to PVDF and membranes were blocked for 1 hour in Blocking Buffer followed by incubation with primary antibody overnight at 4° C. Membranes were washed in TBS-T 3 times for 5 minutes each and then incubated with secondary antibody for 1 hour at room temperature. After incubation with fluorescent secondary antibodies, membranes were washed in TB S-T 3 times for 5 minutes each and then imaged on a Licor Odyssey system. The following antibodies were used in the study: MCU (1:1,000), MCUb (1:250,), MICU1 (1:500,), MCUR1 (1:500), EMRE (1:250, Santa Cruz, sc-86337), VDAC (1:1,000), PDHE1α phospho 5293 (1:1,000), PDHE1α (1:1,000,), IDH3A (1:500), α-tubulin (1:1,000), ETC respiratory chain complexes (1:2,500), H3K4me3 (1:2,000), H3K9me3 (1:2,000), H3K27me3 (1:2,000), H3K4me2 (1:2,000), H3K9me2 (1:2,000), H3K27me2 (1:2,000), H3 (1:2000); and secondary antibodies: anti-mouse (1:12,000), anti-rabbit, (1:12,000), and anti-goat (1:12,000).

The subject of the next experiment is 5-methylcytosine (5-mC). The experiment is described as follows: Global DNA methylation ELISA. The conditions noted are these: MEFs. Here is the method: To extract genomic DNA, cells were collected and washed with PBS followed by 2 h incubation at 60° C. in DNA isolation buffer (0.5% SDS, 100 mM NaCl, 50 mM Tris pH 8, 3 mM EDTA, 0.1 mg/mL proteinase K). DNA was extracted using chloroform followed by ethanol precipitation and dissolved in double-distilled water. DNA methylation was quantified using the MethylFlash™ Methylated DNA Quantification Kit. 100 nanograms of input DNA was used per reaction. Absorbance at 450-nm was measured using a Tecan Infinite F50 microplate reader.
A general note: In an ELISA, binding on a coated surface is turned into a signal by an enzyme label.

For the next experiment, the system named is MICU1. Briefly: Western blot of mtCU components in WT MEFs. Here is the method:
as §1, §2
For orientation: Immunoblotting shows a protein as a band on a membrane.

In another experiment the test system is H3K27me2. Briefly: Western blot of methylated histone 3 lysine residues. The conditions noted are these: 0, 12 or 24 h treatment. Here is the method: as §2
A further experiment concerns NFATc1. The experiment is described as follows: NFAT translocation assay. Particulars: control cells (Ad-βgal), 24 hours. The protocol: MEFs were plated on coated 35-mm dishes and infected with Ad-NFATc1-GFP for 24 hours at which time live-cell images were taken followed by treatment with 10 ng m1^1 TGFP or 10 μM AngII for 24 hours. For live-cell imaging, cells were placed in a 37° C. heated chamber on a Carl Zeiss Axio Observer Z1 fluorescent microscope. Prior to imaging, MEFs were incubated with Hoechst 33342 to demarcate cell nuclei. Images were acquired in the green channel (490ex/525em) and blue channel (350ex/460em). NFAT localization was quantified as the nuclear/cytoplasmic ratio of GFP fluorescence. More than 50 cells per dish were analyzed.

As to “TGFβ: recombinant mouse Transforming growth factor-β, pro-fibrotic agonist”, the “increase in glycolysis from baseline” value in the experiment on MEFs (at peak (TGFβ 48 hours, AngII ~12 hours)) is listed as above 400%. Further, in the experiment with MEFs (peaking 48 hours after treatment), the “increase in basal respiration from baseline” value is around 135%. Moreover, the “ratio of p-PDH E1α/PDH” value in the experiment on PDH E1α is “increased”. The “global DNA methylation” value with 5-methylcytosine (5-mC) is given as “Slight, but non-significant, decreases”. In addition, in the experiment on MICU1, the MICU1/MCU ratio entry is reported as “rapidly increased”. Moreover, in the experiment on MICU1 (12 hours after treatment), the MICU1 expression result was “dramatic increase”. Further, the “dimethylation of H3K27 (H3K27me2)” value in the experiment on H3K27me2 is on record as “progressive decrease”. Further, in the experiment with NFATc1, the “nuclear translocation of NFATc1” value is “induced nuclear translocation of NFATc1”.

Source of the values: patent US20210330744A1, “Methods and Compositions for Treating Neurodegeneration and Fibrosis” (Temple University-Of The Commonwealth System of Higher …, priority 2017, published 2021).
